Test results taken from patent publication US12636370B2, “Combination therapy for treatment of cancer” (Institute For Cancer Research, priority 2019, dated 2026).

Legend:
Assay type in all cases: cell-based
OVCAR8 MZ1-R cells = experiment: CellTiter-Glo cell viability, OVCAR8 MZ1-R cells; conditions: OVCAR8 MZ1-R, escalating doses, 5 days
OVCAR8 cells [1] = experiment: CellTiter-Glo cell viability, OVCAR8 parental cells; conditions: dose escalation, 5 days
OVCAR8 JQ1-R cells [2] = experiment: CellTiter-Glo cell viability, OVCAR8 JQ1-R cells; conditions: escalating doses, 5 days
BET proteins, FOSL1, MYC = experiment: Western blot of BET proteins and BRD4 targets, JQ1-R cells
[3] = system: RTKs FGFR1, FGFR2, FGFR3, IGF1R and ERBB4; experiment: Western blot of RTK protein levels, KURAMOCHI and COV362 cells; conditions: 500 nM, 48 hours
kinome = experiment: MIB-MS kinome profiling, OVCAR8 cells; conditions: 48 hours
OVCAR8 ARV-R cells [4] = experiment: Apoptosis by cleaved PARP Western blot, OVCAR8 ARV-R cells
[5] = system: BET proteins (BRD2, BRD3, BRD4); experiment: Western blot of BET protein levels, OVCAR8 parental cells
OVCAR8 ARV-R cells [6] = experiment: CellTiter-Glo cell viability, OVCAR8 ARV-R cells; conditions: escalating doses, 5 days
BRD4 = molecular target: T1, BRD4 (Homo sapiens, UniProt O60885); experiment: Western blot of BRD4 protein, SW48 K-ras G12D cells; conditions: 4 hours
T1 construct: endogenous in cells
Protocol: (§1) K-ras mutations promote resistance to BET protein degraders that can be overcome by MTORC1 inhibitors. Briefly, isogenic SW48 colorectal cancer cells expressing wild-type or mutant (G12D) K-ras were treated with increasing doses of MZ1 and cell viability was assessed. Expression of K-ras mutants promote resistance to MZ1 therapy (FIG. 18, Panel A). Immunoblot analysis depicts activation of translation by forced expression of K-ras G12D mutants in SW48 cells (FIG. 18, Panel B). SW48 cells expressing wild-type or K-ras G12D mutants were treated with DMSO, 2 μM RAD001, increasing doses of MZ1 or 2 μM RAD001+increasing doses of MZ1 for 4 hours and BRD4 protein assessed by Western blot. A Cell-Titer Glo assay was performed for cell viability of SW48 (KRAS G12D) cell lines treated with increasing concentrations of RAD001, MZ1 or the combination of RAD001 and MZ1 and cultured for 120 hours. Data were analyzed as % cell viability of DMSO control, presented as means of 3 independent assays. […] Data were analyzed as % cell viability of DMSO control, presented as means of 3 independent assays. […]

[7] = system: BET proteins (BRD2, BRD4); experiment: Western blot of BET proteins, KURAMOCHI, COV362 and OVCAR5 MZ1-R cells
[8] = system: BET proteins (BRD2, BRD3, BRD4); experiment: Western blot of BET proteins, OVCAR8 ARV-R cells
[9] = system: RTKs, EGFR, ERBB2, ERBB3, FGFR1, and IGF1R; experiment: Western blot of kinase (RTK) protein levels, OVCAR8 cells; conditions: 500 nM, 48 hours
[10] = system: KURAMOCHI, COV362 and OVCAR5 MZ1-R cells; experiment: CellTiter-Glo cell viability, KURAMOCHI, COV362 and OVCAR5 MZ1-R cells; conditions: COV362 and OVCAR5, escalating doses, 5 days
SW48 (KRAS G12D) cells = experiment: Cell-Titer Glo cell viability, SW48 (KRAS G12D) cells
Protocol: as §1

SW48 (KRAS WT) cells = experiment: Cell-Titer Glo cell viability, SW48 (KRAS WT) cells
Protocol: as §1

OVCAR8 cells [11] = experiment: Single-run proteome analysis and RNA-seq, OVCAR8 cells; conditions: 48 hours, single-run proteome analysis
Protocol: Enrichment maps of pathways repressed by short-term BBD generated from single-run proteome profiles of OVCAR8 cells treated with BBDs (MZ1 or ARV825) for 48 hours were prepared (data not shown). Statistical differences in protein log 2 LFQ z-scores comparing BBDs or BBIs to control treated cells was determined by paired T-Test Benjamini-Hochberg adjusted p values at FDR of <0.05 using Perseus Software. […] Enrichment maps were generated in Cytoscape using the Enrichment Map app v2.2.1. […] Statistical differences in protein log 2 LFQ z-scores comparing BBDs or BBIs to control treated cells was determined.

OVCAR8 JQ1-R cells [12] = experiment: Apoptosis by cleaved PARP Western blot, OVCAR8 JQ1-R cells
OVSAHO cells = experiment: Combination treatment of OVSAHO cells; conditions: BRD4 overexpressing HGSOC cell line OVSAHO
[13] = system: BET proteins (BRD2, BRD3, BRD4); experiment: Western blot of BET proteins and BRD4 targets, OVCAR8 MZ1-R cells; conditions: Western blot
PEO1 JQ1-R cells = experiment: CellTiter-Glo cell viability, PEO1 JQ1-R cells; conditions: escalating doses, 5 days
[14] = system: translation markers, RNA pol II, MYC; experiment: Western blot of translation, BRD4-targets and MYC signaling, OVCAR8 cells; conditions: 500 nM, 48 hours

For `Cc1ncsc1-c1ccc(CNC(=O)[C@@H]2C[C@@H](O)CN2C(=O)[C@@H](NC(=O)COCCOCCOCCNC(=O)C[C@@H]2N=C(c3ccc(Cl)cc3)c3c(sc(C)c3C)-n3c(C)nnc32)C(C)(C)C)cc1` [MZ1], the “cell viability of MZ1-R cells compared with parental cells” value (OVCAR8 MZ1-R cells) was “rightward shift”, the GI50 (OVCAR8 cells [1]) was 142 nM and the “cell viability of JQ1-R cells” value (OVCAR8 JQ1-R cells [2]) was “inhibited cell viability”. For the same compound, the BET protein levels (BET proteins, FOSL1, MYC) was “degraded BET proteins”, the “BRD4 target (FOSL1, MYC) protein levels” value (BET proteins, FOSL1, MYC) was “reduced MYC/FOSL1 protein levels” and the RTK protein levels [3] was “downregulation of RTKs protein levels such as FGFR1, FGFR2, FGFR3, IGF1R and ERBB4”. For the same compound, the “kinase MIB-binding” value (kinome) was “uniquely increased MIB-binding of INSR, CDK7, EPHA4 and EPHA2”, the apoptosis (OVCAR8 ARV-R cells [4]) was “failed to reduce BET proteins, block growth or induce apoptosis” and the BET protein levels [5] was “degraded BET proteins in a concentration-dependent manner”. For the same compound, the “cell viability of ARV-R cells compared with parental cells” value (OVCAR8 ARV-R cells [6]) was “failed to reduce BET proteins, block growth or induce apoptosis”, the BRD4 degradation (BRD4) was “impaired the degradation of BRD4” and the BET protein levels [7] was “failed to mediated degradation of BET proteins”. The BET protein levels [8] was “failed to reduce BET proteins, block growth or induce apoptosis”, the RTK protein levels [9] was “MZ1-specific reduction of RTKs, EGFR, ERBB2, ERBB3, FGFR1, and IGF1R” and the “cell viability / growth of MZ1-R cells compared with parental cells” value [10] was “rightward shift”. The GI50 (SW48 (KRAS G12D) cells; SW48 cells harboring K-Ras G12D mutation) was 63 nM, the “shift in GI50, K-Ras mutant vs parental cells” value (SW48 (KRAS G12D) cells; SW48 isogenic cells) was 10 fold and the inhibition of viability (SW48 (KRAS WT) cells; SW48 K-Ras WT cells, single agent, low concentrations) was > 50%. For the same compound, the GI50 (SW48 (KRAS WT) cells; SW48 parental (wild-type K-Ras) cells) was 0.63 nM, the “global protein level changes” value (OVCAR8 cells [11]) was “uniquely downregulated proteins involved in ribosome and translation signaling” and the apoptosis (OVCAR8 JQ1-R cells [12]) was “induced apoptosis”. For the same compound, the “dose sufficient to induce sensitivity towards GSK529A, lapatinib or RAD001” value (OVSAHO cells) was 10 nM, the BET protein levels [13] was “insufficient to degrade BRD2, BRD3 or BRD4” and the “cell killing / viability” value (PEO1 JQ1-R cells) was “can be killed by treatment with BET PROTAC MZ1”. The MYC protein levels [14] was “reduced MYC protein levels” and the “phosphorylation of translation markers” value ([14]; relative to cis-MZ1 or JQ1) was “distinctly reduced phosphorylation of FOX01/3 (T24/32), P70S6 Kinase (T389), pEIF4E (S209) and p4EBP1 (T37/46)”.
